# Assays:
# [1] = tested on: TNFα; assay: TNFα secretion by human white blood cells stimulated with PMA/ionomycin, synergy score; type: cell-based; parameters: key: S = Σ Idata(Idata−ILoewe) × ln dilution factors; volume over Loewe additivity; settings: PBMC stimulated with PMA/Ionomycin
# Method: A 100 μl suspension of diluted human white blood cells contained within each well of a polystyrene 384-well plate (NalgeNunc) was stimulated to secrete TNFα by treatment with a final concentration of 10 ng/mL phorbol 12-myristate 13-acetate (Sigma, P-1585) and 750 ng/mL ionomycin (Sigma, I-0634). Various concentrations of each test compound were added at the time of stimulation. After 16-18 hours of incubation at 37° C. in a humidified incubator, the plate was centrifuged and the supernatant transferred to a white opaque polystyrene 384-well plate (NalgeNunc, Maxisorb) coated with an anti-TNFα antibody (PharMingen, #551220). After a two-hour incubation, the plate was washed (Tecan PowerWasher 384) with PBS containing 0.1% Tween 20 and incubated for an additional one hour with another anti-TNFα antibody that was biotin labeled (PharMingen, #554511) and HRP coupled to strepavidin (PharMingen, #13047E). After the plate was washed with 0.1% Tween 20/PBS, an HRP-luminescent substrate was added to each well and light intensity measured using a LJL Analyst plate luminometer.
# The synergy scores calculated for the various combinations of compounds set forth in Table 3 was calculated by the formula S=log fX log fYΣIdata(Idata−ILoewe), summed over all non-single-agent concentration pairs, and where log fX,Y are the natural logarithm of the dilution factors used for each single agent. This effectively calculates a volume between the measured and Loewe additive response surfaces, weighted towards high inhibition and corrected for varying dilution factors.
# [2] = tested on: formalin-induced pain model in rats; assay: Formalin pain model, nociceptive behaviors; type: in vivo, Sprague-Dawley rats; settings: Experiment One, amitriptyline
# Method: The formalin model is a fast, reliable model used to assess potential analgesics ability to block inflammatory pain. The analgesic effects of test article combinations on pain generation are assayed using the formalin-induced pain model in rats. Adult male Sprague-Dawley rats are administered intraperitoneally study drugs (vehicle, TCA, steroid or TCA/Steroid test article combinations) once daily for 2 days (day −2 and day −1) and 30 minutes prior to the formalin injection day on day 0 (time=0). […] To elicit a pain response, dilute formalin (2% in saline) is injected under the skin of the plantar surface of the right hindpaw. The animal is placed in an observation chamber. The pain response is a characteristic biphasic response pattern of nociceptive behaviors (lifting, licking, and biting of the injected paw). Two distinct periods of nociceptive behaviors/activity are observed and recorded: an early phase (phase I) lasting the first 5-10 min and a late phase (phase II) lasting 20-40 min after the injection of formalin. One hour of data is collected (time spent displaying pain behavior) by a blinded observer using a stopwatch. Results are expressed as the number of pain behaviors per 5 minute periods (Table 8 and Table 9).
structure (smiles),measurement,setting,value
CN(C)CCC=C1c2ccccc2CCc2ccccc21 [Amitriptyline],Synergy Score based on TNF-α inhibition,[1]; combination with Betamethasone,0.7
same,Synergy Score based on TNF-α inhibition,[1]; combination with Budesonide,0.78
same,Synergy Score based on TNF-α inhibition,[1]; combination with Clobetasol,0.75
same,Synergy Score based on TNF-α inhibition,[1]; combination with Dexamethasone,1.2
same,Synergy Score based on TNF-α inhibition,[1]; combination with Diflorasone,0.59
same,Synergy Score based on TNF-α inhibition,[1]; combination with Hydrocortisone,0.78
same,Synergy Score based on TNF-α inhibition,[1]; combination with Prednisolone,0.68
same,Synergy Score based on TNF-α inhibition,[1]; combination with Triamcinolone,0.34
same,Mean number of behaviors per 5 minute block,"[2]; 1 mg/kg, 5 minutes",233.0 ± 10.0
same,Mean number of behaviors per 5 minute block,"[2]; 1 mg/kg, 10 minutes",52.0 ± 23
same,Mean number of behaviors per 5 minute block,"[2]; 1 mg/kg, 15 minutes",84.0 ± 28.0
same,Mean number of behaviors per 5 minute block,"[2]; 1 mg/kg, 20 minutes",49.0 ± 39.0
same,Mean number of behaviors per 5 minute block,"[2]; 1 mg/kg, 25 minutes",228.0 ± 31.0
same,Mean number of behaviors per 5 minute block,"[2]; 1 mg/kg, 30 minutes",244.0 ± 19.0
same,Mean number of behaviors per 5 minute block,"[2]; 1 mg/kg, 35 minutes",240.0 ± 17.0
same,Mean number of behaviors per 5 minute block,"[2]; 1 mg/kg, 40 minutes",214.0 ± 27.0
same,Mean number of behaviors per 5 minute block,"[2]; 1 mg/kg, 45 minutes",167.0 ± 31.0
same,Mean number of behaviors per 5 minute block,"[2]; 1 mg/kg, 50 minutes",63.0 ± 23.0
same,Mean number of behaviors per 5 minute block,"[2]; 1 mg/kg, 55 minutes",39.0 ± 21.0
same,Mean number of behaviors per 5 minute block,"[2]; 1 mg/kg, 60 minutes",28.0 ± 23.0
same,Mean number of behaviors per 5 minute block,"[2]; 3 mg/kg, 5 minutes",206.0 ± 16.2
same,Mean number of behaviors per 5 minute block,"[2]; 3 mg/kg, 10 minutes",59.0 ± 23.2
same,Mean number of behaviors per 5 minute block,"[2]; 3 mg/kg, 15 minutes",64.0 ± 21.6
same,Mean number of behaviors per 5 minute block,"[2]; 3 mg/kg, 20 minutes",166.0 ± 36.7
same,Mean number of behaviors per 5 minute block,"[2]; 3 mg/kg, 25 minutes",229.0 ± 29.4
same,Mean number of behaviors per 5 minute block,"[2]; 3 mg/kg, 30 minutes",242.0 ± 27.6
same,Mean number of behaviors per 5 minute block,"[2]; 3 mg/kg, 35 minutes",210.0 ± 35.9
same,Mean number of behaviors per 5 minute block,"[2]; 3 mg/kg, 40 minutes",242.0 ± 30.3
same,Mean number of behaviors per 5 minute block,"[2]; 3 mg/kg, 45 minutes",174.0 ± 36.0
same,Mean number of behaviors per 5 minute block,"[2]; 3 mg/kg, 50 minutes",119.0 ± 45.0
same,Mean number of behaviors per 5 minute block,"[2]; 3 mg/kg, 55 minutes",73.0 ± 36.6
same,Mean number of behaviors per 5 minute block,"[2]; 3 mg/kg, 60 minutes",47.0 ± 26.9
same,Mean number of behaviors per 5 minute block,"[2]; 10 mg/kg, 5 minutes",217.0 ± 18.1
same,Mean number of behaviors per 5 minute block,"[2]; 10 mg/kg, 10 minutes",16.0 ± 8.8
same,Mean number of behaviors per 5 minute block,"[2]; 10 mg/kg, 15 minutes",45.0 ± 24.1
same,Mean number of behaviors per 5 minute block,"[2]; 10 mg/kg, 20 minutes",84.0 ± 39.0
same,Mean number of behaviors per 5 minute block,"[2]; 10 mg/kg, 25 minutes",128.0 ± 41.0
same,Mean number of behaviors per 5 minute block,"[2]; 10 mg/kg, 30 minutes",151.0 ± 40.9
same,Mean number of behaviors per 5 minute block,"[2]; 10 mg/kg, 35 minutes",152.0 ± 41.1
same,Mean number of behaviors per 5 minute block,"[2]; 10 mg/kg, 40 minutes",138.0 ± 39.4
same,Mean number of behaviors per 5 minute block,"[2]; 10 mg/kg, 45 minutes",67.0 ± 26.7
same,Mean number of behaviors per 5 minute block,"[2]; 10 mg/kg, 50 minutes",70.0 ± 27.8
same,Mean number of behaviors per 5 minute block,"[2]; 10 mg/kg, 55 minutes",42.0 ± 13.8
same,Mean number of behaviors per 5 minute block,"[2]; 10 mg/kg, 60 minutes",45.0 ± 25.2
same,Mean number of behaviors per 5 minute block,"[2]; 20 mg/kg, 5 minutes",168.0 ± 24.3
same,Mean number of behaviors per 5 minute block,"[2]; 20 mg/kg, 10 minutes",41.0 ± 22.4
same,Mean number of behaviors per 5 minute block,"[2]; 20 mg/kg, 15 minutes",1.0 ± 0.9
same,Mean number of behaviors per 5 minute block,"[2]; 20 mg/kg, 20 minutes",13.0 ± 10.2
same,Mean number of behaviors per 5 minute block,"[2]; 20 mg/kg, 25 minutes",32.0 ± 13.7
same,Mean number of behaviors per 5 minute block,"[2]; 20 mg/kg, 30 minutes",81.0 ± 34.3
same,Mean number of behaviors per 5 minute block,"[2]; 20 mg/kg, 35 minutes",93.0 ± 41.3
same,Mean number of behaviors per 5 minute block,"[2]; 20 mg/kg, 40 minutes",85.0 ± 37.2
same,Mean number of behaviors per 5 minute block,"[2]; 20 mg/kg, 45 minutes",99.0 ± 34.0
same,Mean number of behaviors per 5 minute block,"[2]; 20 mg/kg, 50 minutes",82.0 ± 33.8
same,Mean number of behaviors per 5 minute block,"[2]; 20 mg/kg, 55 minutes",66.0 ± 36.8
same,Mean number of behaviors per 5 minute block,"[2]; 20 mg/kg, 60 minutes",59.0 ± 31.1
